Among the data in patent US20110091872A1, “DETECTING TRIAZOLE RESISTANCE IN ASPERGILLUS” (priority 2007, published 2011) are MIC values, retold here.

As usually defined, the MIC is the lowest concentration that inhibits growth of the organism.

For assay [1], the system named is A. fumigatus wild type strain ATCC 13073. The assay can be described thus: NCCLS M38-A microdilution MIC, parent strain ATCC 13073. The class given is cell-based. The conditions noted are these: Aspergillus fumigatus, ATCC13073, RPMI 1640, 48 hours, 37° C. Here is the method: (§1) The eight putative C6 transcription factors (TFs) were amplified from a well-characterized itraconazole-resistant strain known to over-express ABC transporters. Nascimento et al. Antimicrob. Agents Chemother. (2003) 47:1719-26. The putative mutant TFs were introduced into a wild type recipient strain and transformants screened for resistance to 10 μg/mlitraconazole. Minimum inhibition concentrations (MICs) were determined by the National Committee for Clinical Laboratory Standards (NCCLS) M38-A microdilution method in RPMI 1640 medium in the presence of 0.01 to 16.0 μg/ml after 48 hours of growth at 37° C.
A general note: Broth dilution looks for growth in wells or tubes with falling amounts of substance.

The test system of assay [2] is AzRF1-M (homologous recombinant AzRF1-mutant of ATCC 13073). The assay can be described thus: NCCLS M38-A microdilution MIC, mutant AzRF1-M. The conditions noted are these: strain AzRF1-M, RPMI 1640, 48 hours, 37° C. The class given is cell-based, Aspergillus fumigatus. On the procedure: as §1
(§2) Plasmid pRG3-AMA1-AzRF1 was transformed into the triazole susceptible Ku80 strain. The derived mutant AzRF1-A, containing the mutant AzRF1 in an autonomous replicating plasmid was also resistant to triazole drugs (table 2). […] Strain AzRF1-R had restored sensitivity to triazole drugs (table 2).

Assay [3] concerns KU80 DELTA (triazole susceptible Ku80 strain). Nature of the assay: NCCLS M38-A microdilution MIC, parent strain KU80 DELTA. Type of assay: cell-based. The conditions noted are these: Aspergillus fumigatus, 48 h. Here is the method:
as §1, §2

The subject of assay [4] is AzRF1-H (homologous recombinant AzRF1-mutant of KU80). The assay can be described thus: NCCLS M38-A microdilution MIC, mutant AzRF1-H. Type of assay: cell-based. Conditions: Aspergillus fumigatus; strain AzRF1-H; RPMI 1640, 48 hours, 37° C. Here is the method:
as §1

The test system of assay [5] is AzRF1-A (KU80 with mutant AzRF1 in autonomously replicating plasmid pRG3-AMA1-AzRF1). The assay can be described thus: NCCLS M38-A microdilution MIC, mutant AzRF1-A. Conditions: Aspergillus fumigatus; strain AzRF1-A; RPMI 1640, 48 hours, 37° C. Type of assay: cell-based. Here is the method: as §1, §2
The subject of assay [6] is AzRF1-R (derived from AzRF1-A after plasmid eviction). Nature of the assay: NCCLS M38-A microdilution MIC, strain AzRF1-R. The class given is cell-based. The conditions noted are these: Aspergillus fumigatus, 48 h. Here is the method: as §1, §2
In assay [7] the test system is wild type recipient strain transformed with mutant AzRF1. The assay can be described thus: NCCLS M38-A microdilution MIC, transformants carrying mutant TF AzRF1. Type of assay: cell-based. The conditions noted are these: Aspergillus fumigatus, 48 h. On the procedure:
as §1
AzRF1 is a C6 transcription factor that is closely related to Tac1 of C. albicans with 35% sequence identity to the Tac1 proteins (GeneBank accession number ABD85289.1).

The mark [8] stands for this setting: Aspergillus fumigatus, ATCC13073, read-out: MIC.

Values after ≈ are worked out from the molar mass of the structure shown. Read-outs that look alike come from different tables or passages of the source.

On to `C[C@@H](c1ncncc1F)[C@](O)(Cn1cncn1)c1ccc(F)cc1F` [VORICONAZOLE, voriconazole], for which the MIC was 0.06 µg/mL (≈ 0.172 µM) in assay [1]; over 8 µg/mL in assay [2] (setting [8]); over 8.0 µg/mL in assay [2]; 0.06 µg/mL (≈ 0.172 µM) in assay [3]; over 8 µg/mL in assay [4]; over 8 µg/mL in assay [5]. Moreover, the MIC in assay [6] and in assay [7] was over 8 µg/mL each time.

`CCC(C)n1ncn(-c2ccc(N3CCN(c4ccc(OCC5COC(Cn6cncn6)(c6ccc(Cl)cc6Cl)O5)cc4)CC3)cc2)c1=O` (stereo not shown) [ITRACONAZOLE, itraconazole]: the MIC in assay [1] is 0.25 µg/mL (≈ 0.354 µM); in assay [2] (setting [8]) it was over 16 µg/mL; in assay [2], over 16.0 µg/mL; in assay [3], 0.25 µg/mL (≈ 0.354 µM); in assay [4], over 16 µg/mL; in assay [5], over 16 µg/mL. Besides, the minimum inhibitory concentration (MIC) in assay [6] and in assay [7] was over 16 µg/mL throughout.
